According to patent US9125913B2, “Bcl-2-selective apoptosis-inducing agents for the treatment of cancer and immune diseases” (AbbVie Inc., priority 2008, dated 2015):

tested on: GST-Bcl-2; assay: TR-FRET binding assay, Bcl-2; settings: TR-FRET Ki values
Procedure: Tb-anti-GST antibody was purchased from Invitrogen (Catalog No. PV4216).
Representative compounds were serially diluted in dimethyl sulfoxide (DMSO) starting at 50 μM (2× starting concentration; 10% DMSO) and 10 μL were transferred into a 384-well plate.
The samples were then mixed on a shaker for 1 minute and incubated for an additional 3 hours at room temperature. For each assay, the probe/antibody and protein/probe/antibody were included on each assay plate as negative and positive controls, respectively. Fluorescence was measured on the Envision (Perkin Elmer) using a 340/35 nm excitation filter and 520/525 (F-Bak peptide) and 495/510 nm (Tb-labeled anti-Histidine antibody) emission filters.
The inhibition constant (Ki) is the dissociation constant of an enzyme-inhibitor complex or a protein/small molecule complex, wherein the small molecule is inhibiting binding of one protein to another protein or peptide. […] Inhibition constants were determined using Wang's equation (Wang Z-X., An Exact Mathematical Expression For Describing Competitive Binding Of Two Different Ligands To A Protein Molecule. FEBS Lett. 1995, 360:111-4).

Compound	Binding selectivity ratio (Bcl-XL Ki/Bcl-2 Ki)
CCN(CC)C1CCC(Nc2ccc(S(=O)(=O)NC(=O)c3ccc(N4CCN(CC5=C(c6ccc(Cl)cc6)CC(C)(C)CC5)CC4)cc3Oc3ccc4[nH]ccc4c3)cc2[N+](=O)[O-])CC1 (stereo not shown) [EXAMPLE 201, 4-(4-{[2-(4-chlorophenyl)-4,4-dimethylcyclohex-1-en-1-yl]methyl}piperazin-1-yl)-N-[(4-{[4-(diethylamino)cyclohexyl]amino}-3-nitrophenyl)sulfonyl]-2-(1H-indol-5-yloxy)benzamide]	196.6
CN(C)C1CCC(Nc2ccc(S(=O)(=O)NC(=O)c3ccc(N4CCN(CC5=C(c6ccc(Cl)cc6)CC(C)(C)CC5)CC4)cc3Oc3cccc4[nH]ccc34)cc2[N+](=O)[O-])CC1 (stereo not shown) [EXAMPLE 202, 4-(4-{[2-(4-chlorophenyl)-4,4-dimethylcyclohex-1-en-1-yl]methyl}piperazin-1-yl)-N-[(4-{[4-(dimethylamino)cyclohexyl]amino}-3-nitrophenyl)sulfonyl]-2-(1H-indol-4-yloxy)benzamide]	97.1
CCN(CC)C1CCC(Nc2ccc(S(=O)(=O)NC(=O)c3ccc(N4CCN(CC5=C(c6ccc(Cl)cc6)CC(C)(C)CC5)CC4)cc3Oc3cccc4[nH]ccc34)cc2[N+](=O)[O-])CC1 (stereo not shown) [EXAMPLE 203, 4-(4-{[2-(4-chlorophenyl)-4,4-dimethylcyclohex-1-en-1-yl]methyl}piperazin-1-yl)-N-[(4-{[4-(diethylamino)cyclohexyl]amino}-3-nitrophenyl)sulfonyl]-2-(1H-indol-4-yloxy)benzamide]	139.5
CC1(C)CCC(CN2CCN(c3ccc(C(=O)NS(=O)(=O)c4ccc(N[C@H]5CC[C@H](N6CCOCC6)CC5)c([N+](=O)[O-])c4)c(Oc4cccc5[nH]ccc45)c3)CC2)=C(c2ccc(Cl)cc2)C1 [EXAMPLE 204, Trans-4-(4-{[2-(4-chlorophenyl)-4,4-dimethylcyclohex-1-en-1-yl]methyl}piperazin-1-yl)-2-(1H-indol-4-yloxy)-N-({4-[(4-morpholin-4-ylcyclohexyl)amino]-3-nitrophenyl}sulfonyl)benzamide]	291.3
CN(C)CCOc1cccc(-c2ccc(Cl)cc2)c1CN1CCN(c2ccc(C(=O)NS(=O)(=O)c3ccc(NC4CCN(C)CC4)c([N+](=O)[O-])c3)c(Oc3cccc4[nH]ccc34)c2)CC1 [EXAMPLE 205, 4-[4-({4′-chloro-3-[2-(dimethylamino)ethoxy]-1,1′-biphenyl-2-yl}methyl)piperazin-1-yl]-2-(1H-indol-4-yloxy)-N-({4-[(1-methylpiperidin-4-yl)amino]-3-nitrophenyl}sulfonyl)benzamide]	658.6
CC(c1ccccc1-c1ccc(Cl)cc1)N1CCN(c2ccc(C(=O)NS(=O)(=O)c3ccc(NC4CCN(C)CC4)c([N+](=O)[O-])c3)c(Oc3cccc4[nH]ccc34)c2)CC1 (stereo not shown) [EXAMPLE 206, 4-{4-[1-(4′-chloro-1,1′-biphenyl-2-yl)ethyl]piperazin-1-yl}-2-(1H-indol-4-yloxy)-N-({4-[(1-methylpiperidin-4-yl)amino]-3-nitrophenyl}sulfonyl)benzamide]	>7916.4
CN(C)C1(CNc2ccc(S(=O)(=O)NC(=O)c3ccc(N4CCN(CC5=C(c6ccc(Cl)cc6)CC(C)(C)CC5)CC4)cc3Oc3ccc4[nH]ccc4c3)cc2[N+](=O)[O-])CCOCC1 [EXAMPLE 207, 4-(4-{[2-(4-chlorophenyl)-4,4-dimethylcyclohex-1-en-1-yl]methyl}piperazin-1-yl)-N-{[4-({[4-(dimethylamino)tetrahydro-2H-pyran-4-yl]methyl}amino)-3-nitrophenyl]sulfonyl}-2-(1H-indol-5-yloxy)benzamide]	>3021.3
